These results are taken from patent US10196356B2, “Mixed disulfide conjugates of thienopyridine compounds and uses thereof” (The Regents of the University of Michigan, priority 2013, dated 2019).

Structures are written as SMILES. Where two headings read alike, the source gives them in different places.

For series [1] the following is noted: read-out: Km for GSH; previously reported (Zhang 2012); cited from earlier work.
Series [2] relates to platelets (P2Y12 receptor). Nature of the series: Ex vivo anti-platelet activity of the mixed disulfide conjugates (ADP-induced aggregation, aggregometer). Type of series: cell-based, New Zealand white rabbits. As to conditions: free GSH 1 mM in PRP; 10 μM ADP. How it is done:
The mixed disulfide conjugates were prepared and purified from the reaction mixtures in the presence of 0.3 mM CPT and NPT, along with three control samples containing either 1 mM GSH, no thiol reductant or no G6PD. All samples were re-suspended in 0.5 ml PPP, some of which were treated to 1 mM GSH to release the AM. Platelet aggregation was initiated by the addition of 10 μM ADP and recorded with an aggregometer. The percentage of aggregation was normalized to that of PRP and averaged over four separate measurements. For details, see Materials and Methods. Legend: PRP, untreated platelet-rich plasma; GSH, 1 mM GSH in PRP; −G6PD, metabolites produced in the absence of G6PD; —SH, metabolites produced in the absence of any thiol reductants; GSH, metabolites produced in the presence of 1 mM GSH; CPT, metabolites produced in the presence of 0.3 mM CPT; CPT+GSH, metabolites produced in the presence of 0.3 mM CPT and then treated with 1 mM GSH; NPT, metabolites produced in the presence of 0.3 mM NPT; NPT+GSH, metabolites produced in the presence of 0.3 mM NPT and then treated with 1 mM GSH.
In order to generate sufficient quantities of the mixed disulfide conjugates, the metabolism of 2-oxoclopidogrel was performed in 2-ml reaction mixtures containing 1 mg/ml HLM, 0.1 mM 2-oxoclopidogrel, the NADPH-regenerating system, and 0.3 mM CPT or NPT or 1 mM GSH. The reaction was initiated by the addition of 10 units G6PD and incubated at 37° C. for 50 min. Two control samples were prepared in parallel. […] After an incubation of 50 min, the reaction mixtures were centrifuged at 13,000×g to remove the HLMs. The supernatants were loaded onto SPE C18 cartridges to enrich the mixed disulfide conjugates. After extensive washing with water to remove salts and other water-soluble metabolites, the conjugate samples were eluted with 2 ml of methanol. The methanolic fractions were dried using a Speedvac concentrator and the dried samples were then re-suspended in 1 ml of platelet-poor plasma (PPP). Prior to the anti-platelet activity assays, the re-suspended conjugates were divided into two equal volumes (0.5 ml each), one of which was treated with 1 mM GSH at 37° C. for 30 min to generate the AM. Both samples were then placed on ice until use.
The procedures used to determine ex vivo anti-platelet activity were previously reported (see, e.g., Abell L M and Liu E C (2011) J Pharm Exp Ther 339(2):589-596).
Male New Zealand white rabbits (2.2-2.9 kg) were used as blood donors. Whole blood was drawn from a central ear artery into a plastic syringe containing 3.7% sodium citrate as the anticoagulant (1:10 volume ratio of citrate to blood). A whole blood cell count was determined with a Medonic CA620 hematology analyzer (Clinical Diagnostic Solutions, Inc., Plantation, Fla., USA). Platelet-rich plasma (PRP), the supernatant present after centrifugation of whole blood at 100×g for 10 min, was diluted with PPP to achieve a platelet count of approximately 300,000/μl. Platelet-poor plasma was prepared by centrifuging the remaining blood at 1,500×g for 10 min and discarding the bottom cellular layer. The diluted PRP was divided into 0.5 ml samples, centrifuged again at 170×g for 10 mins, and the resulting supernatant was discarded. The platelet pellets were re-suspended in platelet-poor plasma containing the various chemical inhibitors prepared as described previously and incubated with gentle shaking at 37° C. for 60 min to modify the P2Y12 receptor. Ex vivo platelet aggregation was assessed by established nephelometric methods with the use of a 4-channel aggregometer (BioData PAP-4; BioData Corp., Horsham, Pa., USA) by recording the increase in light transmission through a stirred suspension of PRP maintained at 37° C. Platelet aggregation was induced with ADP (10 μM). A subaggregatory concentration of epinephrine (550 nM) was used to prime the platelets before addition of the agonist.

For a further series, the system named is platelet aggregation. Nature of the series: In vivo antiplatelet activity after intravenous injection. More on the design: species or system male New Zealand (NZ) white rabbits. The method, then:
FIG. 9 presents platelet activities of male NZ white rabbits following IV injection of (S)-clopNPT as described in Example X.
The antiplatelet activity of the mixed disulfide conjugates of clopidogrel was determined using male NZ white rabbits (1.2-1.25 kg).
To prepare intravenous solution, (S)-clopNPT was dissolved at 0.7 mg/ml in a mixture of N,N-dimethylacetamide (DMA), polyethylene glycol (PEG) 400, and saline at 5, 15 and 80 (v/v) ratio. The male NZ white rabbits were dosed at 2 mg/kg of (S)-clopNPT using two different methods. In Method 1, the intravenous solution was first mixed with 5 mM glutathione. After an incubation of 15 min at 37° C. to activate (S)-clopNPT, the mixture was intravenously injected to the rabbit via the jugular vein. In Method 2, the male NZ white rabbit was fed with 5 ml of Readisorb glutathione solution once daily for three days to increase cellular glutathione concentrations. On the third day, (S)-clopNPT dissolved in DMA/PEG400/saline was injected intravenously to the Readisorb-treated rabbit. As a negative control, (S)-clopidogrel was dosed intravenously to a male NZ white rabbit at 2 mg/kg as well. Prior to and 1 and 2 hours after dosing (S)-clopNPT, whole blood was drawn from the carotid artery into a plastic syringe containing 3.7% sodium citrate as the anticoagulant (1:10 volume ratio of citrate to blood). A whole blood cell count was determined with a Medonic CA620 hematology analyzer (Clinical Diagnostic Solutions, Inc., Plantation, Fla., USA). Platelet-rich plasma (PRP), the supernatant present after centrifugation of whole blood at 100×g for 10 min, was diluted with platelet-poor plasma (PPP) to achieve a platelet count of approximately 300,000/μl. […] Platelet aggregation was assessed by established nephelometric methods with the use of a 4-channel aggregometer (BioData PAP-4; BioData Corp., Horsham, Pa., USA) by recording the increase in light transmission through a stirred suspension of PRP maintained at 37° C. […]

Series [3] can be described thus: Rate of formation of the AM from 2-oxoclopidogrel by HLMs in the presence of various thiol reductants. Type of series: in vitro ADME, human. Conditions: 0.3 mM thiol reductant; HLM, 0.1 mM 2-oxoclopidogrel. The method, then: The AM was produced in 0.1 ml of 50 mM KP buffer (pH 7.4) containing 0.2 mg/ml HLM, 0.1 mM 2-oxoclopidogrel, the NADPH-regenerating system, and the thiol reductants. The concentrations of the thiol reductants were 1 mM except for CPT, DFT and NPT which were 0.3 mM each. The reaction was initiated by the addition of 5 units of G6PD and incubated at 37° C. for 20 min. The active metabolite was then quantitated as the MP derivative as described in Materials and Methods. The reported rates were averaged over three separate measurements.
To examine the effects of various thiol reductants on the formation of the active metabolite (AM), the rates at which the AM was produced were determined. Production of the AM was performed in 0.1 ml of 50 mM potassium phosphate (KPi) buffer (pH 7.4) containing 0.2 mg/mL HLM, 0.1 mM 2-oxoclopidogrel, the NADPH-regenerating system, and 1 mM of each of the thiol reductants except that 0.3 mM CPT, DFT, or NPT were used. The reaction was initiated by the addition of 5 units of glucose-6-phosphate dehydrogenase (G6PD) and incubated at 37° C. for 20 min. The AM was then derivatized with 4 mM MPB at room temperature for 10 min, followed by acidification with acetic acid to 3% (v/v). For quantification, 50 pmoles of (S)-clopidogrel was added into each reaction mixture as internal standard (IS). The derivatized AM (AM-MP) was quantitated using LC-MS/MS.
The MS analyses of the reaction mixture were performed on an ion-trap mass spectrometer (LCQ DecaXP, Thermo Fisher Scientific, Waltham, Mass.) as reported previously (Zhang et al., 2012). In brief, the metabolites of 2-oxoclopidogrel were separated on a reverse phase C18 column (2×100 mm, 3 μm, Phenemonex, Calif.) using a binary mobile phase at a flow rate of 0.2 ml/min. The temperature of the C18 column was maintained at 40° C. using a column heater (Restek Corporation, Lancaster, Pa.). […] Transitions from m/z 504→m/z 354 for the AM-MP and from m/z 322→m/z 212 for the IS were used to quantitate the amount of the AM-MP based on a calibration curve consisting of various concentrations of cis-clopidogrel-MP.

The nature of series [4]: Formation of mixed disulfide conjugates of clopidogrel by HLMs (Km of thiol). Type of series: in vitro ADME, human. As to conditions: 2-oxoclopidogrel, read-out: Km for the formation of the mixed disulfide conjugate. How it is done: The mixed disulfide conjugates were produced by HLMs for both structural and semi-quantitative analyses. Metabolism of 2-oxoclopidogrel was performed in 0.2 ml of 50 mM KP buffer (pH 7.4) as described above except that the concentration of HLMs was increased to 1 mg/ml. The reaction was incubated at 37° C. for 30 min and then quenched by the addition of 0.1 ml of 10% of acetic acid in acetonitrile. The quenched samples were centrifuged at 13,000×g for 10 min to remove the HLMs. Aliquots of 50 μl of the supernatant were loaded onto a mass spectrometer to analyze both the active and conjugate metabolites.
The MS analyses were performed as described above except that the MS detector was operated in the dependent scan mode. The precursor ions were scanned from m/z 300-700, whereas the MS^2 spectra were obtained from m/z 100 to 700 for the four most abundant ions. For semi-quantitative analysis, 50 pmoles of the IS was spiked into each sample that had been quenched. The relative amounts of the AM and respective conjugates were calculated as the AUC ratios of the metabolites to that of the IS.

Consider `N[C@@H](CCC(=O)N[C@@H](CS)C(=O)NCC(=O)O)C(=O)O` [GSH, glutathione, reference compound], for which, in series [1], the Km was 300 µM. In addition, the “effect on platelet aggregation” value in series [2] was “no effect on platelet aggregation”.
Turning to `COC(=O)[C@H](c1ccccc1Cl)N1CCc2sccc2C1` [(S)-clopidogrel, (+)-(S)-methyl 2-(2-chlorophenyl)-2-(6,7-dihdrothieno[3,2-c]pyridine-5(4H)-yl)acetate, reference compound], in the series on platelet aggregation (2 mg/kg intravenously, blood 1 and 2 hours after dosing, 10 μM ADP), the “inhibition of platelet aggregation (in words)” value is given as “did not inhibit platelet aggregation”.
On to `COC(=O)C(c1ccccc1Cl)N1CCC(SSc2ncccc2[N+](=O)[O-])C(=CC(=O)O)C1` [(S)-clopNPT], for which the “inhibition of platelet activity” value in the series on platelet aggregation (2 mg/kg IV, Readisorb-treated rabbit, within one hour of IV injection) is given as ~70%. In addition, in the series on platelet aggregation (2 mg/kg IV, dosed with glutathione or to Readisorb glutathione treated rabbit), the “inhibition of platelet aggregation” value was “more than 50%”.
In the case of `O=[N+]([O-])c1cccnc1S` [NPT, 3-nitropyridine-2-thiol], in series [3], the “formation of the AM (in words)” value is “No AM was observed”. Besides, the Michaelis constant (Km) in series [4] is 51 µM.
Take `Cc1cc(S)c(C)o1` [DFT, 2,5-dimethylfuran-3-thiol]: the “formation of the AM (in words)” value in series [3] is on record as “No AM was observed”. Further, the Km in series [4] worked out at 30 µM.
Take `Sc1ccc(Cl)nn1` [CPT, 6-chloropyridazine-3-thiol]: the “formation of the AM (in words)” value in series [3] is reported as “No AM was observed”. Moreover, the Km in series [4] was 23 µM.
